Results as given in article PMC9283751 (Clinical and Translational Science, 2022).
Where two headings read alike, the source gives them in different places.

Assays:
[1] = type: in vivo, human
[2] = type: in vivo, human; remark: listed apart in the source
[3] = with diltiazem; cited from earlier work
[4] = cited from earlier work
[5] = cited from earlier work; remark: listed apart in the source
[6] = Calcineurin inhibitor trough levels in transplant recipients; type: in vivo, human; conditions: mean [SD]
[7] = reference group of healthy subjects, abbreviated dosing schedule; cited from earlier work
[8] = transplant recipients on tacrolimus, reference healthy subjects on apixaban + tacrolimus
[9] = transplant recipients on cyclosporine compared to healthy subjects on apixaban alone
[10] = transplant recipients on cyclosporine, reference healthy subjects on apixaban + cyclosporine

With `COc1ccc(-n2nc(C(N)=O)c3c2C(=O)N(c2ccc(N4CCCCC4=O)cc2)CC3)cc1` [apixaban] the “increase in plasma concentrations and total body exposures” value ([1]; SOTRs on calcineurin inhibitors compared to healthy subjects on apixaban alone) was 2 to 3 fold, the AUC(0-inf) ([1]; human, plasma, oral, 10 mg) was 5210 ng·h/mL and the Cmax ([1]; human, plasma, oral, 10 mg) was 327 ng/mL. It also gave a Tmax ([1]; human, plasma, oral, 10 mg) of 1.4 h, an AUC(0-inf) ([1]; human, plasma, po, 10 mg) of 4310 ng·h/mL and an AUC(0-t) ([1]; human, plasma, po, 10 mg) of 4240 ng·h/mL. For the same molecule, the Cmax ([1]; human, plasma, po, 10 mg) was 353 ng/mL, the peak level ([1]; one participant (kidney 1) on tacrolimus) was over 500 ng/mL and the “mean AUCs higher than the healthy participants” value ([1]; tacrolimus group, patients with optimal renal function) was 1.8 fold. The Tmax ([1]; tacrolimus transplant cohort, comparison group to patients that weighed <60 kg) was 2.6 h, the “mean Cmax” value ([1]; tacrolimus transplant cohort, patients that weighed <60 kg) was 483 ng/mL and the “apixaban CL/F” value ([1]; tacrolimus transplant cohort, patients with creatinine levels of greater than 133 μmol/L) was 1.9 L/h. The “GMR for apixaban AUC0-inf” value ([1]; transplant recipients on tacrolimus compared to healthy subjects on apixaban alone) was 224%, the “GMR for apixaban AUC0-inf” value [1, 8] was 285% and the “GMR for apixaban AUC0-tlast” value [1, 8] was 309%. For the same molecule, the AUC(0-inf) ([2]; human, plasma, po, 10 mg) was 5390 ng·h/mL, the AUC(0-t) ([2]; human, plasma, po, 10 mg) was 4990 ng·h/mL and the “GMR for apixaban AUC0-inf” value [2, 9] was 280%. For the same molecule, the “GMR for apixaban Cmax” value [2, 9] was 256%, the “GMR for apixaban AUC0-inf” value [2, 10] was 229% and the “GMR for apixaban Cmax” value [2, 10] was 179%. For the same molecule, the “increase in apixaban AUC” value [3] was 1.4 fold, the “increase in apixaban Cmax” value [3] was 1.3 fold and the “apixaban dose removed by the kidneys” value [4] was 27%. For the same molecule, the solubility classification [5] was “high solubility”.
In the case of `C=CC[C@@H]1/C=C(\C)C[C@H](C)C[C@H](OC)[C@H]2O[C@@](O)(C(=O)C(=O)N3CCCC[C@H]3C(=O)O[C@H](/C(C)=C/[C@@H]3CC[C@@H](O)[C@H](OC)C3)[C@H](C)[C@@H](O)CC1=O)[C@H](C)C[C@@H]2OC` [tacrolimus], the mean trough level ([6]; after apixaban administration) is listed as 8.0 [2.7] ng/ml, the mean trough level ([6]; before apixaban administration (steady-state)) is listed as 7.4 (1.5) ng/ml and the trough level [7] is listed as 3.8 (2.3) ng/ml.
